Assay results as given in US20240182492A1, “AZAHETEROARYL COMPOUND, PREPARATION METHOD THEREFOR, AND APPLICATION THEREOF” (SHANGHAI BLUERAY BIOPHARMA CO., LTD., priority 2021, published 2024).

Assays:
[1] = molecular target: T1, EED protein (full-length, His6 tag) binding to H3K27me3 polypeptide (Homo sapiens, UniProt O75530); assay: AlphaScreen evaluation of blocking the binding of EED to H3K27Me3; conditions: EED / biotinylated H3K27me3 peptide competition
T1 construct: The full-length EED protein (441 amino acids) with His6 tag
T1 sequence (O75530 whole entry): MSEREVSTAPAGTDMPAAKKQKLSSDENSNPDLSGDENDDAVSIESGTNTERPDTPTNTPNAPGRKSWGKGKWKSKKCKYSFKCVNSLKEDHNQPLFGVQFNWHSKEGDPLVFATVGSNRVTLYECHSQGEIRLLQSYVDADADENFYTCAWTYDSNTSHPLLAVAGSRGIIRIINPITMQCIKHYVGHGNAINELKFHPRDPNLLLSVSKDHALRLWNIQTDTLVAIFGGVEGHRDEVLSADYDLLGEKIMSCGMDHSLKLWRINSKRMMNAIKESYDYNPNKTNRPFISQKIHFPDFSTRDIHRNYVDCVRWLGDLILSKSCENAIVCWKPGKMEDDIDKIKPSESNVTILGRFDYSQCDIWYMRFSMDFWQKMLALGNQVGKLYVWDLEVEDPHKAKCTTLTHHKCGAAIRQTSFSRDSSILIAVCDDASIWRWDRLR
Experimental: Example 53: Evaluation of the Effect of the Compound in Blocking the Binding of EED to H3K27Me3 by AlphaScreen (a-Screening) Method
First, compound solutions with different concentration gradients are prepared. Compound powder is dissolved in DMSO to form mother liquor. 1.5 μL of the compound mother liquor is taken to 198.5 μL reaction buffer (25 mM HEPES (pH 8.0), 50 mM NaCl, 0.015% Tween 20, 0.5% BSA) and the solution is mix uniformly, and then 3-fold gradient dilution is performed with the above buffer containing 0.75% DMSO. 9 different test concentrations are set for the same compound. 5 μL of compounds with different concentration gradients was taken to ProxiPlate-384 Plus, White detection plate (PerkinElmer, 6008280), and 2 parallel replicates are set for each concentration gradient.
Next, a binding blocking reaction is performed. The full-length EED protein (441 amino acids) with His6 tag is diluted to 60 nM with the above buffer, and the biotinylated polypeptide fragment H3K27me3 (amino acids 19-33) (Biotinylated-H3K27me3) is diluted to 75 nM with the same buffer. 5 μL of 75 nM peptide fragments and 5 μL of 60 nM protein are transferred to the testing wells containing the compound respectively. The testing plate is sealed with a film, and is incubated for 30 minutes at room temperature.
Finally, AlphaScreen method is used for detection. Before use, nickel chelate acceptor beads and streptavidin donor beads (Perkin Elmer, product number 6760619M) are mixed into the above reaction buffer at a ratio of 1:1, and then 5 μL of the above pre-mixed testing solution is added to each testing well. The final concentration of the donor beads and acceptor beads is 5 μg/mL. The testing plate is covered with tin foil and placed at room temperature in the dark for 1 hour. Signals are read using an AlphaScreen detector on a Spectra max i3. The AlphaScreen signal is normalized according to the readings obtained from the positive control (maximum signal control) and negative control (minimum signal control) to give the inhibition rate of different concentrations of the compound. After that, non-linear regression analysis was performed with GraphPad Prism 5, and dose-response equation Y=Bottom+(Top−Bottom)/(1+10^((Log IC50−X)*HillSlope)) is used to make an inhibition curve, obtaining the IC50 value of each compound. […]

[2] = tested on: B-cell non-Hodgkin lymphoma cells KARPAS-422; assay: Cell proliferation analysis, KARPAS-422, 13 days, CellTiter-Glo; type: cell-based, Human; conditions: Karpas-422, 13 days
Experimental: Example 55: Cell Proliferation Analysis
Human B-cell non-Hodgkin lymphoma cells KARPAS-422 S were cultured in culture flasks using standard cell culture conditions. The culture medium contains 15% fetal bovine serum (FBS, Invitrogen, product number 10099-141), 1% penicillin/streptomycin solution (P/S) RPMI-1640 (Invitrogen, product number 11875), and the culture flask is placed and cultured in a sterile incubator at 37° C., 95% relative humidity, and 5% CO2. In order to detect the effect of PRC2 inhibitors on cell proliferation, cells in the exponential growth phase were seeded into 96-well plates (Corning, product number 3904) at a density of 1×10^4 cells/well, and 100 μL of medium was added to each well. Subsequently, the compounds disclosed herein at different concentrations were added to the wells seeded with cells (9 concentration gradients were set for each compound, and the highest detection concentration was 10 μM, 3-fold gradient dilution), and 2 repeats in parallel were set for each treatment concentration. The final concentration of DMSO is 0.5%. Then the number of surviving cells was counted with Vi-CELL (Beckman Coulter) every 3-4 days. The cells counted each time were seeded into a new 96-well plate at the same density (1×10^4 cells/well). The wells were supplemented with fresh medium to 100 μL, and different concentrations of the compound were added at the same time. The cells were cultured until the 13th day, on which 100 μL of CellTiter-Glo (CellTiter-GloCellTiter-GloCellTiter-GloCTG) (Promega, Product No. G7573) was added to each well. The plate was placed for 10-20 minutes in the dark at room temperature, and Molecular Devices and SpectraMax i3X were used to read the luminous signal. The data were fitted to a dose-response curve using GraphPad prisim5 and the IC50 values of the tested compounds were obtained.

[3] = tested on: trimethylation level of histone H3K27 in G401 cells; assay: ELISA (H3K27 trimethylation) analysis in G401 cells; type: cell-based; conditions: H3K27me3 normalized by H3
Experimental: Example 54: ELISA (H3K27 Trimethylation) Analysis
Representative compounds of the present disclosure are diluted in DMSO with 3-fold gradient, and 10 concentration gradients are tested per compound. The maximum testing concentration is 10 μM. The compound is diluted 200-fold into G401 cells cultured in 96-well plates (the final concentration of DMSO is 0.5%). After the cells are cultured for 72 hours, the trimethylation level of histone H3K27 is detected by ELISA method.
Histone extraction: compound-treated cells in a 96-well plate are washed 3 times with 1×PBS (10×PBS buffer (80 g NaCl (Sigma, Product No. S3014), 2 g KCl (Sigma, Product No. 60128), 14.4 g Na2HAPO4 (Sigma, Product No. S5136) and 2.4 g KH2PO4 (Sigma, Product No. P9791) are added to 1 L water, pH to 7.4), and 100 μL of 0.4N HCl is added to each well. The 96-well plate is placed at 4° C. and gently shaken for 2 hours to lyse the cells. The cell lysate is then neutralized with 80 μL of neutralization buffer (0.5M disodium hydrogen phosphate, pH 12.5, 2.5 mM DTT; 1% cocktail (Sigma, Product No. P8340) (mixing the cell lysate and neutralization buffer thoroughly).
ELISA detection method: the cell lysates are transferred in parallel to two 384-well assay plates (PerkinElmer, OptiPlate-384HB, Product No. 6007290). One plate is used to detect the trimethylation level of H3K27, and the other plate is used to measure the level of H3. PBS is adjusted to a final volume of 50 μL/well. The wells are coated overnight at 4° C. On the next day, the solution in the wells was discarded. TBST buffer (1 xTBS (10×TBS: 24.2 g Tris (Sigma, Product No. T6066) and 80 g NaCl (Sigma, Product No. S3014) are added to 1 L water, and pH is adjusted to 7.6 with HCl) and 0.1% Tween-20) is used to wash it 5 times, and the water is dried on absorbent papers. 70 μL of blocking buffer (TBST, 5% BSA) is added to the coated reaction wells, and the wells are incubated for 1 hour at room temperature. The blocking buffer was discarded, and the primary antibody is added (30 μL/well). The required primary antibodies are diluted with blocking buffer, and the dilution ratios were as follows: anti-H3K27me3 antibody (Cell Signaling Technology, Product No. 9733), 1:2000 dilution; anti-H3 antibody (Cell Signaling Technology, Product No. 4499), 1:10000 dilution. After adding the primary antibody, the wells are incubated at room temperature for 1 hour. After washing with TBST for 5 times, the water are dried. The secondary antibody (30 μL/well) is added to each reaction well, and the wells are incubated at room temperature for 1 hour. Secondary antibody (anti-rabbit antibody (Jackson ImmunoResearch, Product No. 111-035-003)) is used after dilution 2000-fold in blocking buffer. After 1 hour, it is washed with TBST and dried. 30 μL of ECL substrate (Pierce, Product No. 34080) is added to each well and centrifuged for 30 seconds at 2000 rpm. Signal of each sample is detected using Molecular Devices, SpectraMax. Data processing: H3K27 methylation readings are first normalized by H3 signal. 0.500 DM8)-treated sample is used as a control, and the inhibition percentage of the compound is calculated. The data is fitted to a dose-response curve using the GraphPad prisim5 program, obtaining the IC50 values of the test compounds.

[4] = Homo sapiens, KARPAS-422, 312 h

For `CC(O)(c1ccc(-c2cnc(NCc3c(F)ccc4c3CCO4)n3cnnc23)c2ncnn12)C(F)(F)F` (single isomer, unassigned) [Compound c], the IC50 [1] was 0.0025 µM, the IC50 [2, 4] was 0.0095 µM and the IC50 ([3]; Homo sapiens, G-401, 72 h) was 0.0017 µM.
`Cc1ccc(-c2cnc(NCc3c(F)ccc4c3[C@H]3C[C@H]3O4)n3cnnc23)c2ncnn12` [N-(((1aR,6bR)-5-fluoro-1a,6b-dihydro-1H-cyclopropeno[b]benzofuran-6-yl)methyl)-8-(5-methyl-[1,2,4]triazolo[1,5-a]pyridin-8-yl)-[1,2,4]triazolo[4,3-c]pyrimidin-5-amine] showed an IC50 [1] of 0.0035 µM.
`CCC(O)(CC)c1ccc(-c2cnc(NCc3c(F)ccc4c3CCO4)n3cnnc23)c2ncnn12` [3-(8-(5-(((5-fluoro-2,3-dihydrobenzofuran-4-yl)methyl)amino)-[1,2,4]triazolo[4,3-c]pyrimidin-8-yl)-[1,2,4]triazolo[1,5-a]pyridin-5-yl)pentan-3-ol] was tested, and the IC50 [1] was 0.0035 µM, the IC50 [2, 4] was 0.0077 µM and the IC50 ([3]; Homo sapiens, G-401, 72 h) was 0.0024 µM.
`CC(O)(CF)c1ccc(-c2cnc(NCc3c(F)ccc4c3CCO4)n3cnnc23)c2ncnn12` (stereo not drawn) [1-fluoro-2-[8-(5-{[(5-fluoro-2,3-dihydro-1-benzofuran-4-yl)methyl]amino}-[1,2,4]triazolo[4,3-c]pyrimidin-8-yl)-[1,2,4]triazolo[1,5-a]pyridin-5-yl]propan-2-ol] was tested, and the IC50 [1] was 0.0043 µM, the IC50 [2, 4] was 0.0022 µM and the IC50 ([3]; Homo sapiens, G-401, 72 h) was 0.0011 µM.
Work on `OC1(c2ccc(-c3cnc(NCc4c(F)ccc5c4CCO5)n4cnnc34)c3ncnn23)CC1` [1-[8-(5-{[(5-fluoro-2,3-dihydro-1-benzofuran-4-yl)methyl]amino]-[1,2,4]triazolo[4,3-c]pyrimidin-8-yl)-[1,2,4]triazol[1,5-a]pyridin-5-yl]cyclopropan-1-ol] yielded an IC50 [1] of 0.0047 µM, an IC50 [2, 4] of 0.0033 µM and an IC50 ([3]; Homo sapiens, G-401, 72 h) of 0.0009 µM.
`CC(C)(O)c1ncc(-c2cnc(NCc3c(F)ccc4c3CCO4)n3cnnc23)c2ncnn12` [2-(8-(5-(((5-fluoro-2,3-dihydrobenzofuran-4-yl)methyl)amino)-[1,2,4]triazolo[4,3-c]pyrimidin-8-yl)-[1,2,4]triazolo[1,5-c]pyrimidin-5-yl)propan-2-ol] was tested, and the IC50 [1] was 0.0062 µM, the IC50 [2, 4] was 0.0066 µM and the IC50 ([3]; Homo sapiens, G-401, 72 h) was 0.0028 µM.
`CCC(O)c1ccc(-c2cnc(NCc3c(F)ccc4c3CCO4)n3cnnc23)c2ncnn12` (single isomer, unassigned) [Compound e] showed an IC50 [1] of 0.0064 µM, an IC50 [2] of 0.002 µM and an IC50 ([3]; 72 hours) of 0.0004 µM.
With `CC(C)(O)Cc1ccc(-c2cnc(NCc3c(F)ccc4c3CCO4)n3cnnc23)c2ncnn12` [1-(8-(5-(((5-fluoro-2,3-dihydrobenzofuran-4-yl)methyl)amino)-[1,2,4]triazolo[4,3-c]pyrimidin-8-yl)-[1,2,4]triazolo[1,5-a]pyridin-5-yl)-2-methylpropan-2-ol] the IC50 [1] was 0.0113 µM, the IC50 [2, 4] was 0.0102 µM and the IC50 ([3]; Homo sapiens, G-401, 72 h) was 0.0032 µM.
In the case of `CC(O)(CF)c1ccc(-c2cnc(NCc3c(F)ccc4c3CCO4)n3cnnc23)c2ncnn12` (single isomer, unassigned) [Compound h], the IC50 [1] is reported as 0.0048 µM, the IC50 [2] is reported as 0.0025 µM and the IC50 ([3]; 72 hours) is reported as 0.0012 µM.
`CC(C)(O)c1c(F)cc(-c2cnc(NCc3c(F)ccc4c3CCO4)n3cnnc23)c2ncnn12` [2-(6-fluoro-8-(5-(((5-fluoro-2,3-dihydrobenzofuran-4-yl)methyl)amino)-[1,2,4]triazolo[4,3-c]pyrimidin-8-yl)-[1,2,4]triazolo[1,5-a]pyridin-5-yl)propan-2-ol] showed an IC50 [1] of 0.0057 µM, an IC50 [2, 4] of 0.0146 µM and an IC50 ([3]; Homo sapiens, G-401, 72 h) of 0.0059 µM.
Compound `CCC(C)(O)c1ccc(-c2cnc(NCc3c(F)ccc4c3CCO4)n3cnnc23)c2ncnn12` (single isomer, unassigned) [Compound a] has an IC50 [1] of 0.0054 µM, an IC50 [2, 4] of 0.0041 µM and an IC50 ([3]; Homo sapiens, G-401, 72 h) of 0.0012 µM.
Work on `CCC(O)c1ccc(-c2cnc(NCc3c(F)ccc4c3CCO4)n3cnnc23)c2ncnn12` (stereo not drawn) [1-(8-(5-(((5-fluoro-2,3-dihydrobenzofuran-4-yl)methyl)amino)-[1,2,4]triazolo[4,3-c]pyrimidin-8-yl)-[1,2,4]triazolo[1,5-a]pyridin-5-yl)propan-1-ol] yielded an IC50 [1] of 0.0065 µM, an IC50 [2, 4] of 0.0032 µM and an IC50 ([3]; Homo sapiens, G-401, 72 h) of 0.0026 µM.
Work on `Fc1ccc2c(c1CNc1ncc(-c3cccn4ncnc34)c3nncn13)CCO2` [8-([1,2,4]triazolo[1,5-a]pyridin-8-yl)-N-((5-fluoro-2,3-dihydrobenzofuran-4-yl)methyl)-[1,2,4]triazolo[4,3-c]pyrimidin-5-amine] yielded an IC50 [1] of 0.0047 µM.
`Cc1ccc(-c2cnc(NCc3c(F)ccc4c3CCO4)n3cnnc23)c2ncnn12` [N-((5-fluoro-2,3-dihydrobenzofuran-4-yl)methyl)-8-(5-methyl-[1,2,4]triazolo[1,5-a]pyridin-8-yl)-[1,2,4]triazolo[4,3-c]pyrimidin-5-amine] showed an IC50 [1] of 0.0089 µM.
